Assay results: patent publication US7829526B2, “Cardioinhibitory/antihypertensive novel endogenous physiologically active peptide” (Japan Science and Technology Agency, priority 2004, dated 2010)

Key:
[1] = Cardioinhibitory or hypotensive activity of deletion variants and homologue (method not described); settings: variants of SEQ ID No: 2
[2] = system: isolated, perfused rat hearts; experiment: Isolated heart working model (isolated perfused rat heart); settings: for cardiac contractility (inotropism): rat hearts, direct action on heart
Experimental: Isolated heart working model was used for estimating direct effect on cardiac muscle, according to a method described previously (Nat Med 9:[…], 2003). A heart isolated from a rat was set on an isolated heart perfusion apparatus (Primetech Corporation, IPH-W2) which was perfused with a Krebs Henseleit Buffer at 37° C., and stabilized. Subsequently, synthetic peptides were administered (10^−8 mol/l). Then, HR, SP, DP, MAP and aortic flow (AF) were measured over a period of 15 min. Coronary flow (CF) was measured by collecting coronary sinus effluent before and at 5 and 10 min after administering the peptide agent. Based on the obtained data, cardiac output (CO) was calculated by adding AF and CF, whereas stroke volume (SV) was obtained by dividing CO by HR, and then normalized by the heart volume of each rat.

intact-rats = experiment: Effect of synthesized peptide on intact anesthetized rats (blood pressure, heart rate, aortic flow); type: in vivo, rat; settings: for hypotensive effect: anesthetized SD rats, synthetic peptide 10 nmol/kg intravenously
Experimental: Meanwhile, a peptide of the present invention consisting of the amino acid sequence shown by SEQ ID No: 2 determined in Example 1, was synthesized with the use of a peptide synthesizer (Shimadzu, PSSM-8), and tested in the following experiment. SD rats weighing 400 to 525 g were used as test animals.
SD rats were anesthetized by intraperitoneal pentobarbital sodium (50 mg/kg), and a synthesized peptide was administered intravenously via a catheter placed in the […]. Heart rates and blood pressure were measured according to a method described previously (Nat Med 9: 1166-72, 2003) with the use of an electromagnetic flowmeter (MFV-1100, Nihon Koden). Further, a flowmeter was attached to the abdominal aorta, and aortic flow was measured according to the above method described previously. Synthetic peptides (10 nmol/kg) were administered intravenously over a period of 15 seconds or more, and systolic pressure (SP), diastolic pressure (DP) mean aortic pressure (MAP), heart rate (HR) were measured. A hypotensive effect of a synthetic peptide of the present invention was observed.

SD rats = settings: cited from earlier work; for hypotensive and bradycardiac effects: 1 min after intravenous administration, SD rats under pentobarbital anesthesia; for dose dependence of hypotensive and bradycardiac effects: salusin-α 1-10 nmol/kg, salusin-β 0.1-1 nmol/kg
[3] = system: isolated rat aortic preparation; settings: intact and endothelium-detached preparations, unconstricted or constricted with phenylephrine; cited from earlier work
[4] = intravenous administration into anesthetized rats

| Substance | cardioinhibitory activity or hypotensive activity [1] | hypotensive and bradycardiac effects (SD rats) | hypotensive effects after pretreatment with NO synthase inhibitor L-NAME (SD rats) | dose dependence of hypotensive and bradycardiac effects (SD rats) | direct effect on isolated rat aorta [3] | also measured |
| --- | --- | --- | --- | --- | --- | --- |
| (1-20): SEQ ID No: 2 wherein 4 amino acids at C-terminal end are deleted (AIFIFISNTGGKQINQVALE; listed as Homo sapiens) | potent cardioinhibitory activity or hypotensive activity is maintained |  |  |  |  |  |
| (2-13): SEQ ID No: 2 wherein 11 amino acids at C-terminal end and 1 amino acid at N-terminal end are deleted (IFIFISNTGGKQ; listed as Homo sapiens) | the activity is somewhat decreased |  |  |  |  |  |
| (5-24): SEQ ID No: 2 wherein 4 amino acids at N terminal end are deleted (FISNTGGKQINQVALEAWRS; listed as Homo sapiens) | potent cardioinhibitory activity or hypotensive activity is maintained |  |  |  |  |  |
| AIFIFISNTGGKQINQVALEAWRS (listed as Homo sapiens) [peptide of the present invention, human-derived 24 amino acid peptide translated from TOR2A mRNA] |  |  |  |  |  | coronary flow ([2]; isolated rat heart, peptide 10^−8 mol/l, before and at 5 and 10 min, FIG. 2): lowering coronary flow; cardiac contractility (inotropism) [2]: potently reduce cardiac contractility; cardiac contractility (inotropism) ([2]; listed as This peptide): negative inotropism; hypotensive effect (intact-rats; FIG. 1, listed as This peptide): significant hypotensive activity; hypotensive effect (intact-rats; FIG. 1, listed as synthetic peptide of the present invention): observed; aortic blood flow (intact-rats; [4]): reduced; heart rates (intact-rats; [4]): reduced; aortic pressure (intact-rats; intravenous administration into anesthetized rats, FIG. 1): marked lowering; negative inotropic and chronotropic effects (intact-rats; rank among endogenous peptides, FIG. 2): most potent endogenous peptide identified thus far |
| salusin-α: related peptide of 28 amino acids biosynthesized by processing of preprosalusin (SGALPPAPAAPRPALRAQRAGPAGPGAK; salusin-alpha) |  | rapid hypotensive and bradycardiac effects | not affected | dose-responsive | did not show any direct effect |  |
| salusin-β: related peptide of 20 amino acids biosynthesized by processing of preprosalusin (AIFIFIRWLLKLGHHGRAPP; salusin-beta) |  | rapid hypotensive and bradycardiac effects | not affected | dose-responsive | did not show any direct effect | potency compared to salusin-α (SD rats; hypotensive and bradycardiac effects): approximately 10 fold |
